Data reported in article PMC7413254 (Nature Communications, 2020).
Like-named read-outs stand apart in the source and are kept apart here.

Experiments:
PfCRT [1] = assay: Influx of VF-6 via PfCRT into the oocyte, solutes tested as potential co-substrates; assay type: cell-based, Plasmodium falciparum; design: key: X: Compounds that have been tested as potential co-substrates but are not required for influx of VF-6 via PfCRT into the oocyte; details: X marks the solute
PfCRT^3D7 [2] = molecular target: T1, PfCRT^3D7 (Plasmodium falciparum, UniProt Q8IBZ9); assay: cell-based; assay type: cell-based; details: total [3H]CQ transport; for inhibition at 500 µM: [test solute] = 0.5 mM; for inhibition at 1000 µM: [test solute] = 1 mM; for inhibition at 2000 µM: [test solute] = 2 mM
How it was run: (§1)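 Using pH 5.5 ND96 at 27.5 °C, uptake is followed for 1.5 h, stopped with ice-cold buffer, and quantified as accumulated radioactivity per oocyte after SDS lysis.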

PfCRT^Dd2 [3] = molecular target: T2, PfCRT^Dd2 (Plasmodium falciparum, UniProt Q9N623, A220S/I356T/K76T/M74I/N326S/N75E/Q271E/R371I); assay: [3H]CQ uptake into Xenopus oocytes, cis-inhibition by unlabelled solute; assay type: cell-based
How it was run: as §1

PfCRT^Ecu1110 [4] = molecular target: T3, PfCRT^Ecu1110 (Plasmodium falciparum, UniProt Q9N623, A220S/I356L/K76T/N326D); assay: as above; assay type: cell-based
How it was run: as §1

non-expressing oocytes [5] = assay type: cell-based, Xenopus laevis; details: total [3H]CQ transport; for Uptake of [3H]CQ (% non-expressing oocyte control), trans-stimulation: non-expressing oocytes, normalised to the oocyte type control; for Uptake of [3H]CQ (% PfCRTDd2 control), trans-stimulation, non-expressing oocytes: mean ± SEM, SEM
How it was run: (§2)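 Oocytes (ten per treatment, ≥4 independent frogs/days) were preloaded by injecting VF-6 in 25 nL ND96 at pH 5.0, 5.5, 6.0 or 7.0, or Na^+-free choline buffer, then uptake run 1.5 h, 27.5 °C, ND96 pH 5.5 by default. Internal concentrations assumed ~400 nL oocyte volume.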

PfCRT [6] = assay: Test of solutes as potential co-substrates for influx of VF-6 via PfCRT into the oocyte; assay type: cell-based, Plasmodium falciparum; design: key: X: Compounds that have been tested as potential co-substrates but are not required for influx of VF-6 via PfCRT into the oocyte; details: X = tested
non-expressing oocytes [7] = assay: cells; assay type: cell-based, Xenopus laevis; details: Xenopus laevis, Oocyte
How it was run: as §1

PfNT1 = molecular target: T4, PfNT1 (Plasmodium falciparum, UniProt Q8IDM6); assay: cell-based; assay type: cell-based; details: for activity at 5000 µM: total [3H]CQ transport
T4 construct: expressed in transfected cells; host or cells: Xenopus laevis oocytes (stage V-VI), cRNA-injected
How it was run: as §2

PfCRT^Dd2 [8] = molecular target: T2, PfCRT^Dd2; assay: cell-based; assay type: cell-based; details: […]; for activity at 45000 µM: [test solute]i = 45 mM (30 mM for some solutes due to solubility)
How it was run: as §2

PfCRT^Ecu1110 [9] = molecular target: T3, PfCRT^Ecu1110; assay: cell-based; assay type: cell-based; details: […]
How it was run: as §2

PfCRT^3D7 [10] = molecular target: T1, PfCRT^3D7; assay: cell-based; assay type: cell-based
How it was run: as §2

[11] = PfCRT3D7 oocytes, normalised to the oocyte type control, read-out: Uptake of [3H]CQ (% PfCRT3D7 control), cis-inhibition
[12] = mean ± SEM, SEM, read-out: Uptake of [3H]CQ (% PfCRTDd2 control), cis-inhibition, PfCRT3D7
[13] = read-out: PfCRT-mediated [3H]CQ transport, cis-inhibition (% PfCRTDd2 control)
[14] = read-out: Uptake of [3H]CQ (% PfCRTDd2 control), cis-inhibition, PfCRTDd2, SEM
[15] = read-out: PfCRT-mediated [3H]CQ transport, cis-inhibition (% PfCRTEcu1110 control)
[16] = read-out: Uptake of [3H]CQ (% PfCRTDd2 control), cis-inhibition, PfCRTEcu1110, SEM
[17] = read-out: Uptake of [3H]CQ (% PfCRTEcu1110 control), cis-inhibition
[18] = read-out: [3H]CQ transport (% PfCRTEcu1110 control), cis-inhibition, PfCRTEcu1110, SEM
[19] = read-out: Uptake of [3H]CQ (% PfCRTDd2 control), cis-inhibition, non-expressing oocytes, SEM
[20] = read-out: Uptake of [3H]CQ (% non-expressing oocyte control), cis-inhibition

T1 sequence (Q8IBZ9 59-398): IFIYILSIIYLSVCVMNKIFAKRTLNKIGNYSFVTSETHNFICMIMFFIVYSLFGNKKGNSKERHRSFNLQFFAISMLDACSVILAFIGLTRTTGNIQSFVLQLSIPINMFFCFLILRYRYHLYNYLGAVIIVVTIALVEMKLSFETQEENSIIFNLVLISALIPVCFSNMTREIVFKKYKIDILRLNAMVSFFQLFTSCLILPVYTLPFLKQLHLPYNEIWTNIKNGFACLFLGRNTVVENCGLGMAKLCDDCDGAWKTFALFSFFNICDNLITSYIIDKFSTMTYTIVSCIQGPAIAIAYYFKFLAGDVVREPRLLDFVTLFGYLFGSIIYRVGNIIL
T2 sequence (Q9N623 whole entry A220S/I356T/K76T/M74I/N326S/N75E/Q271E/R371I): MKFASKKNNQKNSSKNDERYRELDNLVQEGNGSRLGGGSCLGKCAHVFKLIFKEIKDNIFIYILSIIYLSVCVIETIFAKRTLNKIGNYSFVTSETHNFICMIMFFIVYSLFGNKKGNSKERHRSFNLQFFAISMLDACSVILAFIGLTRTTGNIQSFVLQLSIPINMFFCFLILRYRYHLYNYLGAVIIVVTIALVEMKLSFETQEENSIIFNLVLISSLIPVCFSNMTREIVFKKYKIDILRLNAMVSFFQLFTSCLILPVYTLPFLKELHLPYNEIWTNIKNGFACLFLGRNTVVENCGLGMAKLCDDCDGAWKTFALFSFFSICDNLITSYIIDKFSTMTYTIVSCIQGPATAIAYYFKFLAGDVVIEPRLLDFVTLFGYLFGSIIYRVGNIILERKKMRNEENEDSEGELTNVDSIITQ
T4 sequence (Q8IDM6 whole entry): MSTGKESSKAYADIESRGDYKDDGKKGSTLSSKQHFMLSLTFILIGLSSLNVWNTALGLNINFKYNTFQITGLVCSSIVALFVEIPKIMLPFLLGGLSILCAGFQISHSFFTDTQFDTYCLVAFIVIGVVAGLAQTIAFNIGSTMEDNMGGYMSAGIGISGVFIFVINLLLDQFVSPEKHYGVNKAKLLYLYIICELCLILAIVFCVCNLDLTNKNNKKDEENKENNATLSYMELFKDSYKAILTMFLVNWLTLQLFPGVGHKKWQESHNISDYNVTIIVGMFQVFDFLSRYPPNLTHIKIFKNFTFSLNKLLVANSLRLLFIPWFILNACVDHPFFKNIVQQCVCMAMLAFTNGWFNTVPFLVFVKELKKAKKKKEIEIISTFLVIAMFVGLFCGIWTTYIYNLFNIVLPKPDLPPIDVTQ
T3 sequence (Q9N623 whole entry A220S/I356L/K76T/N326D): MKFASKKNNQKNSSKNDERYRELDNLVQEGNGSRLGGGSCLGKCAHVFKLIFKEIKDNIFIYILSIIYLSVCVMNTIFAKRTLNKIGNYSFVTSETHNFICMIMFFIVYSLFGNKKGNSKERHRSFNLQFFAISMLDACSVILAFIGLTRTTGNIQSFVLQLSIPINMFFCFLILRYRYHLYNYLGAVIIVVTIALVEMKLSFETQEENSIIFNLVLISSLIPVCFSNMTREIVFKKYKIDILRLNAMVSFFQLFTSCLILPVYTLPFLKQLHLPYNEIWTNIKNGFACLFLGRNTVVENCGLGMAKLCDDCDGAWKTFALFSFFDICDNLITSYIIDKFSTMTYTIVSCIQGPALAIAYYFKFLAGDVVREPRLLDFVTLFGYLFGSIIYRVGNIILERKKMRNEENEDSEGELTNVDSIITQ

## NCCCC[C@H](N)C(=O)O [L-lysine]
PfCRT [1]
  Compounds that have been tested as potential co-substrates but are not required for influx of VF-6 via PfCRT into the oocyte: X
PfCRT^3D7 [2]; [11]
  inhibition at 500 µM: 100 ± 4.8%
  inhibition at 1000 µM: 101 ± 3.7%
  inhibition at 2000 µM: 100 ± 4.7%
PfCRT^3D7 [2]; [12]
  inhibition at 500 µM: 3.4 ± 0.07%
  inhibition at 1000 µM: 3.3 ± 0.03%
  inhibition at 2000 µM: 3.1 ± 0.07%
PfCRT^Dd2 [3]; [13]
  inhibition at 500 µM: 93 ± 5.2%
  inhibition at 1000 µM: 99 ± 3.6%
  inhibition at 2000 µM: 95 ± 4.1%
PfCRT^Dd2 [3]; [14]
  inhibition at 500 µM: 96 ± 3.1%
  inhibition at 1000 µM: 100 ± 2.8%
  inhibition at 2000 µM: 97 ± 3.2%
PfCRT^Ecu1110 [4]; [15]
  inhibition at 500 µM: 93 ± 6.7%
  inhibition at 1000 µM: 97 ± 5.2%
  inhibition at 2000 µM: 96 ± 4.1%
PfCRT^Ecu1110 [4]; [16]
  inhibition at 500 µM: 31 ± 1.9%
  inhibition at 1000 µM: 32 ± 1.8%
  inhibition at 2000 µM: 32 ± 1%
PfCRT^Ecu1110 [4]; [17]
  inhibition at 500 µM: 95 ± 3.6%
  inhibition at 1000 µM: 99 ± 4.6%
  inhibition at 2000 µM: 98 ± 3.2%
PfCRT^Ecu1110 [4]; [18]
  inhibition at 500 µM: 28 ± 1.6%
  inhibition at 1000 µM: 29 ± 0.2%
  inhibition at 2000 µM: 29 ± 0.2%
non-expressing oocytes [5]; [test solute]i = 5 mM
  Uptake of [3H]CQ (% non-expressing oocyte control), trans-stimulation: 101 ± 3.2 % non-expressing oocyte control
non-expressing oocytes [5]; [test solute]i = 45 mM (30 mM for some solutes due to solubility)
  Uptake of [3H]CQ (% non-expressing oocyte control), trans-stimulation: 99 ± 3.2 % non-expressing oocyte control
non-expressing oocytes [5]; [test solute]i = 5 mM (intracellular)
  Uptake of [3H]CQ (% PfCRTDd2 control), trans-stimulation, non-expressing oocytes: 2.3 ± 0.03 % PfCRTDd2 control
non-expressing oocytes [5]; [test solute]i = 45 mM (intracellular; 30 mM for some solutes due to solubility)
  Uptake of [3H]CQ (% PfCRTDd2 control), trans-stimulation, non-expressing oocytes: 3.3 ± 0.03 % PfCRTDd2 control
PfCRT [6]
  Tested as potential co-substrate but not required for influx of VF-6 via PfCRT into the oocyte: X
non-expressing oocytes [7]; [19]
  inhibition at 500 µM: 2.9 ± 0.03%
  inhibition at 1000 µM: 3.3 ± 0.07%
  inhibition at 2000 µM: 3.3 ± 0.03%
non-expressing oocytes [7]; [20]
  inhibition at 500 µM: 101 ± 6.3%
  inhibition at 1000 µM: 101 ± 3.6%
  inhibition at 2000 µM: 100 ± 3.6%
PfNT1; PfNT1 oocytes, [test solute]i = 5 mM, normalised to the oocyte type control, read-out: Uptake of [3H]CQ (% PfNT1 control), trans-stimulation
  activity at 5000 µM: 100 ± 3.6%
PfNT1; SEM, read-out: Uptake of [3H]CQ (% PfCRTDd2 control), trans-stimulation, PfNT1
  activity at 45000 µM: 2.8 ± 0.05%
PfNT1; read-out: Uptake of [3H]CQ (% PfNT1 control), trans-stimulation
  activity at 45000 µM: 99 ± 3.7%
PfNT1; [test solute]i = 5 mM (intracellular), mean ± SEM, SEM, read-out: Uptake of [3H]CQ (% PfCRTDd2 control), trans-stimulation, PfNT1
  activity at 5000 µM: 2.1 ± 0.01%
PfCRT^Dd2 [8]; pH 5.5, read-out: PfCRT-mediated [3H]CQ transport, trans-stimulation (% PfCRTDd2 control), [test solute]i = 5 mM (intracellular), PfCRTDd2 oocytes, normalised to oocyte type control
  activity at 5000 µM: 97 ± 3.4%
PfCRT^Dd2 [8]; pH 5.5, read-out: Uptake of [3H]CQ (% PfCRTDd2 control), trans-stimulation, PfCRTDd2, total [3H]CQ transport, [test solute]i = 5 mM (intracellular), mean ± SEM, SEM
  activity at 5000 µM: 99 ± 2.4%
PfCRT^Dd2 [8]; pH 5.5, read-out: Uptake of [3H]CQ (% PfCRTDd2 control), trans-stimulation, PfCRTDd2 oocytes, [test solute]i = 5 mM, total [3H]CQ transport, normalised to the oocyte type control
  activity at 5000 µM: 99 ± 2.4%
PfCRT^Dd2 [8]; pH 5.5, read-out: Uptake of [3H]CQ (% PfCRTDd2 control), trans-stimulation, PfCRTDd2 oocytes, total [3H]CQ transport, normalised to the oocyte type control
  activity at 45000 µM: 97 ± 3.2%
PfCRT^Dd2 [8]; pH 5.5, read-out: [3H]CQ transport (% PfCRTDd2 control), trans-stimulation, PfCRTDd2, trans-stimulation, [test solute]i = 5 mM (injected), PfCRT-mediated component (background subtracted), mean ± SEM, SEM
  activity at 5000 µM: 97 ± 3.4%
PfCRT^Dd2 [8]; pH 5.5, read-out: [3H]CQ transport (% PfCRTDd2 control), trans-stimulation, PfCRTDd2, trans-stimulation, PfCRT-mediated component (background subtracted), mean ± SEM, SEM
  activity at 45000 µM: 95 ± 4.5%
PfCRT^Ecu1110 [9]; pH 5.5, read-out: PfCRT-mediated [3H]CQ transport, trans-stimulation (% PfCRTEcu1110 control), [test solute]i = 5 mM (intracellular), PfCRTEcu1110 oocytes, normalised to oocyte type control
  activity at 5000 µM: 95 ± 3.8%
PfCRT^Ecu1110 [9]; pH 5.5, read-out: Uptake of [3H]CQ (% PfCRTEcu1110 control), trans-stimulation, PfCRTEcu1110 oocytes, [test solute]i = 5 mM, total [3H]CQ transport, normalised to the oocyte type control
  activity at 5000 µM: 97 ± 4.4%
PfCRT^Ecu1110 [9]; pH 5.5, read-out: Uptake of [3H]CQ (% PfCRTEcu1110 control), trans-stimulation, PfCRTEcu1110 oocytes, [test solute]i = 45 mM (30 mM for some solutes due to solubility), total [3H]CQ transport, normalised to the oocyte type control
  activity at 45000 µM: 99 ± 4.2%
PfCRT^Ecu1110 [9]; read-out: Uptake of [3H]CQ (% PfCRTDd2 control), trans-stimulation, PfCRTEcu1110, total [3H]CQ transport, [test solute]i = 5 mM (intracellular), mean ± SEM, SEM
  activity at 5000 µM: 35 ± 1.8%
PfCRT^Ecu1110 [9]; read-out: Uptake of [3H]CQ (% PfCRTDd2 control), trans-stimulation, PfCRTEcu1110, total [3H]CQ transport, [test solute]i = 45 mM (intracellular; 30 mM for some solutes due to solubility), mean ± SEM, SEM
  activity at 45000 µM: 35 ± 1.6%
PfCRT^3D7 [10]; PfCRT3D7 oocytes, [test solute]i = 5 mM, total [3H]CQ transport, normalised to the oocyte type control, read-out: Uptake of [3H]CQ (% PfCRT3D7 control), trans-stimulation
  activity at 5000 µM: 99 ± 3.7%
PfCRT^3D7 [10]; SEM
  [3H]CQ transport (% PfCRT3D7 control), trans-stimulation, PfCRT3D7: 0.3 ± 0.02 % PfCRT3D7 control
PfCRT^3D7 [10]; [test solute]i = 5 mM (intracellular), PfCRT3D7 oocytes, normalised to oocyte type control, read-out: PfCRT-mediated [3H]CQ transport, trans-stimulation (% PfCRT3D7 control)
  activity at 5000 µM: 97 ± 2%
PfCRT^3D7 [10]; SEM, read-out: Uptake of [3H]CQ (% PfCRTDd2 control), trans-stimulation, PfCRT3D7
  activity at 45000 µM: 3.3 ± 0.06%
PfCRT^3D7 [10]; read-out: PfCRT-mediated [3H]CQ transport, trans-stimulation (% PfCRT3D7 control)
  activity at 45000 µM: 96 ± 1.9%
PfCRT^3D7 [10]; read-out: Uptake of [3H]CQ (% PfCRT3D7 control), trans-stimulation
  activity at 45000 µM: 98 ± 2.4%
PfCRT^3D7 [10]; total [3H]CQ transport, [test solute]i = 5 mM (intracellular), mean ± SEM, SEM, read-out: Uptake of [3H]CQ (% PfCRTDd2 control), trans-stimulation, PfCRT3D7
  activity at 5000 µM: 3.3 ± 0.05%
